Positions of bridges follow the written chain, without caps; N, C: chain ends. Residues, ends and D or L forms follow the SMILES beside them. No end group written: not given here.
What was measured:
L. monocytogenes EGD = assay type: cell-based, Listeria monocytogenes; conditions: 24 h
Method: (§1) Antibacterial activity of recombinant bacteriocins against a number of Gram-positive and Gram-negative bacteria (Table S2) was determined by the method of two-fold serial dilutions in a liquid medium. Two-fold serial dilutions of bacteriocins were prepared in sterile 96-well flat-bottom polystyrene microplates (Eppendorf, Hamburg, Germany) (Cat. No. 0030730.011) in a volume of 50 µL of sterile 0.1% bovine serum albumin (BSA) (SERVA Electrophoresis GmbH, Heidelberg, Germany) to prevent non-specific sorption of peptides to the surface of the plate wells [23]. Mid-log phase bacterial cultures were diluted with the 2x Mueller-Hinton broth (MHB) (Sigma-Aldrich, St. Louis, MO, USA) to a final cell concentration of 10^6 colony forming units (CFU) per mL. To determine the activity of bacteriocins against Listeria and Enterococci, 3% tryptic soy broth (TSB) (Merck-Millipore, Burlington, MA, USA) was used instead of MHB. Aliquots of 50 μL of diluted bacterial suspensions were added to each well of the plate, which was then incubated at 37 °C and 950 rpm for 24 h using thermostatable plate shaker PST-60HL-4 (Biosan, Riga, Latvia). As a negative control, 50 µL of the sterile growth medium (2xMHB or 6% TSB) was added to the wells containing 50 µL of 0.1% BSA. The values of the minimum inhibitory concentrations (MIC) were determined as the minimum concentration of the peptide, at which there was no visible growth of bacterial culture. Incubation for 2 h with 20 µg/mL chromogenic substrate resazurin (Sigma-Aldrich, St. Louis, MO, USA) was used to detect viable bacterial cells if they were difficult to visually detect. To study the effect of inorganic salts on the antimicrobial activity of bacteriocins, antibacterial activity assay was carried out in MHB medium supplemented with 0.9% NaCl.

L. lactis MK43 = experiment: Antibacterial activity assay (MIC), two-fold serial dilutions in liquid medium; assay type: cell-based; conditions: for Minimum inhibitory concentration in the presence of NaCl: MHB supplemented with 0.9% NaCl; for Minimum Inhibitory Concentration: MHB, 0.1% BSA, 37 °C, 24 h, no visible growth
Method: as §1

tested bacterial strains = experiment: Antibacterial activity assay (MIC), average change over the tested strains; assay type: cell-based
Method: as §1, with “As a negative control, 50 µL of the sterile growth medium (2xMHB or 6% TSB) was added to the wells containing 50 µL of 0.1% BSA.” left out, “Incubation for 2 h with 20 µg/mL chromogenic substrate resazurin (Sigma-Aldrich, St. Louis, MO, USA) was used to detect viable bacterial cells if they were difficult to visually detect. To study the effect of inorganic salts on the antimicrobial activity of bacteriocins, antibacterial activity assay was carried out in MHB medium supplemented with 0.9% NaCl.” left out

S. aureus 209P = assay type: cell-based; conditions: 24 h
Method: as §1

[1] = test system: P. aeruginosa MDR CI 1995; assay type: cell-based; conditions: MDR CI 1995, 24 h
Method: as §1

A. baumannii XDR CI 2675 = assay type: cell-based; conditions: XDR CI 2675, 24 h
Method: as §1

E. coli ATCC 25922 = assay type: cell-based; conditions: ATCC 25922, 24 h
Method: as §1

E. coli XDR CI 1057 = assay type: cell-based; conditions: XDR CI 1057, 24 h
Method: as §1

M. phlei Ac-1221 = assay type: cell-based; conditions: 24 h
Method: as §1

B. subtilis B-886 = assay type: cell-based; conditions: B-886, 24 h
Method: as §1

E. coli SQ110 = assay type: cell-based; conditions: SQ110, 24 h
Method: as §1

E. coli ML-35p = assay type: cell-based; conditions: 24 h
Method: as §1

M. luteus Ac-2229 = assay type: cell-based; conditions: Ac-2229, 24 h
Method: as §1

L. lactis MK66 = assay type: cell-based; conditions: MK66, 24 h
Method: as §1

B. licheniformis B-511 = assay type: cell-based; conditions: 24 h
Method: as §1

Compound	Minimum Inhibitory Concentration (L. monocytogenes EGD) [µM]	Minimum inhibitory concentration in the presence of NaCl (L. lactis MK43) [µM]	Minimum Inhibitory Concentration (L. lactis MK43) [µM]	Minimum Inhibitory Concentration (S. aureus 209P) [µM]	Minimum Inhibitory Concentration [1] [µM]	Minimum Inhibitory Concentration (A. baumannii XDR CI 2675) [µM]	Minimum Inhibitory Concentration (E. coli ATCC 25922) [µM]	Minimum Inhibitory Concentration (E. coli XDR CI 1057) [µM]	Minimum Inhibitory Concentration (M. phlei Ac-1221) [µM]	Minimum Inhibitory Concentration (B. subtilis B-886) [µM]	Minimum inhibitory concentration in the presence of NaCl (B. subtilis B-886) [µM]	Minimum Inhibitory Concentration (E. coli SQ110) [µM]	Minimum inhibitory concentration in the presence of NaCl (E. coli SQ110) [µM]	Minimum Inhibitory Concentration (E. coli ML-35p) [µM]	Minimum inhibitory concentration in the presence of NaCl (E. coli ML-35p) [µM]	Minimum Inhibitory Concentration (M. luteus Ac-2229) [µM]	Minimum Inhibitory Concentration (L. lactis MK66) [µM]	Minimum inhibitory concentration in the presence of NaCl (L. lactis MK66) [µM]	Minimum Inhibitory Concentration (B. licheniformis B-511) [µM]	Minimum inhibitory concentration in the presence of NaCl (B. licheniformis B-511) [µM]	other results
KTYYGNGVHSTKKSLWGKVRLKNVIPGTLCRKQSLPIKQDLKILLGWATGAFGKTFH [AcdA(dT,C11S)]	>32	> 32	4	32	>32	8	8	16	4	4	> 32	4	16	4	32	16	1	> 32	4	> 32	Increase of MIC values on average compared to AcdA(dT) and acidocin A (tested bacterial strains): 2–4 fold
CC[C@H](C)[C@H](NC(=O)[C@H](Cc1ccc(O)cc1)NC(=O)[C@@H](NC(=O)[C@@H](NC(=O)[C@H](CC(N)=O)NC(=O)[C@H](CCC(N)=O)NC(=O)[C@H](CC(=O)O)NC(=O)[C@H](Cc1ccc(O)cc1)NC(=O)[C@H](CCCCN)NC(=O)[C@@H](NC(=O)[C@H](CC(N)=O)NC(=O)[C@H](CCCCN)NC(=O)[C@H](CC(C)C)NC(=O)[C@H](CCCNC(=N)N)NC(=O)[C@@H](NC(=O)[C@H](CCCCN)NC(=O)CNC(=O)[C@H](Cc1c[nH]c2ccccc12)NC(=O)[C@H](CC(C)C)NC(=O)[C@H](CO)NC(=O)[C@H](CC(N)=O)NC(=O)[C@H](CCCCN)NC(=O)[C@@H](NC(=O)[C@H](CS)NC(=O)[C@H](Cc1c[nH]cn1)NC(=O)[C@@H](NC(=O)CNC(=O)[C@H](CC(N)=O)NC(=O)[C@@H](NC(=O)CNC(=O)[C@H](Cc1ccc(O)cc1)NC(=O)[C@H](Cc1ccc(O)cc1)NC(=O)[C@@H](NC(=O)[C@@H](N)CCCCN)[C@@H](C)O)[C@@H](C)O)C(C)C)[C@@H](C)O)C(C)C)C(C)C)[C@@H](C)O)[C@@H](C)O)C(=O)NCC(=O)N[C@@H](CCCNC(=N)N)C(=O)N[C@@H](CC(C)C)C(=O)N[C@@H](CCC(N)=O)C(=O)N[C@@H](CC(=O)O)C(=O)N[C@H](C(=O)N[C@@H](CC(C)C)C(=O)N[C@@H](CC(C)C)C(=O)NCC(=O)N[C@@H](Cc1c[nH]c2ccccc12)C(=O)N[C@@H](C)C(=O)N[C@H](C(=O)NCC(=O)N[C@@H](C)C(=O)N[C@@H](Cc1ccccc1)C(=O)NCC(=O)N[C@@H](CCCCN)C(=O)N[C@H](C(=O)N[C@@H](Cc1ccccc1)C(=O)N[C@@H](Cc1c[nH]cn1)C(=O)O)[C@@H](C)O)[C@@H](C)O)[C@@H](C)CC [OR-7(VI) (DTT reduced)] (H-KTYYGTNGVHCTKNSLWGKVRLKNVKYDQNTTYIGRLQDILLGWATGAFGKTFH-OH; N-terminus and C-terminus assumed)	>32		>32	>32	>32	>32	>32	>32	32	16		>32		>32		>32	4		8		
KTYYGNGVHCTKKSLWGKVRLKNVIPGTLCRKQSLPIKQDLKILLGWATGAFGKTFH (disulfide 10-30) [AcdA(dT)]	>128	> 32	1	8	16	4	4	8	2	2	> 32	1	8	2	16	8	0.5	32	2	> 32	

Source: article PMC9780942, “Antimicrobial Activity and Immunomodulatory Properties of Acidocin A, the Pediocin-like Bacteriocin with the Non-Canonical Structure” (Membranes, 2022)
